According to patent US4647457A, “Penicillanic acid derivatives” (Hoffmann-La Roche Inc., priority 1983, dated 1987):
pIC50: −log10 of the molar value. Like-named read-outs stand apart in the source and are kept apart here.

Legend:
[1] = biological target: T1, β-lactamase from E. coli RTEM (Escherichia coli, UniProt P62593); assay: β-lactamase inhibition, nitrocefin cleavage, isolated enzyme from E. coli RTEM; type: biochemical; details: 15 min pre-incubation, nitrocefin substrate, 37° C., pH 7.0
T1 construct: there is obtained a clear crude extract which can be used as the enzyme source; endogenous in cells; host or cells: E. coli RTEM, sonicated cells, clear crude extract
Description: (§1) Various β-lactamases can be isolated from penicillin-resistant or cephalosphorin-resistant strains of bacteria such as Klebsiella pneumoniae NCTC 418, Proteus vulgaris 1028 and E. coli RTEM. For this purpose, the corresponding strains are cultivated in Tryptic Soy Broth (Difco) and harvested by centrifugation in the late logarithmic growth phase (when required 50-100 mg/l of ampicillin are added to the medium towards the end of the log-phase in order to induce the β-lactamase). The thus-obtained bacteria mass is treated with 10 mM of phosphate buffer (pH 7.0); the cells are broken open with ultrasound (Biosonic III, Bronwill; 3-5 min. impulse) while cooling. The mixture is centrifuged (20,000 r/min.) for 20-30 minutes and there is obtained a clear crude extract which can be used as the enzyme source (β-lactamase source) and which can be frozen at -20° C. for several months without loss of activity.
(§2) The determination of the activity of the isolated β-lactamases can be carried out according to the method of O'Callaghan, C. H. et al. [Antimicr. Ag. Chemother. 1, 283-288 (1972)] with the chromogenic cephalosporin nitrocefin (Glaxo). The required experimental batch contains per ml of water: 50 mM of phosphate buffer (pH 7.0), 0.1 mM of nitrocefin and sufficient enzyme (β-lactamase) in order to attain a ΔA/min. of about 0.1. The cleavage of the substrate, which is associated with a colour change, is carried out at 37° C. and is followed quantitatively at 482 nm with a spectral photometer.
(§3) The above-described cleavage of the chromogenic substrate by β-lactamases (experiment B) can be inhibited by adding compounds of formula I (inhibitors). Since it has been shown that the inhibitors irreversibly inactivate the β-lactamase in a time-dependent reaction, the reaction (cleavage of the substrate) is started by adding the substrate, in each case after a pre-incubation period of β-lactamase with inhibitor of 15 minutes. The determination of the β-lactamase-inhibiting activity of compounds of formula I in which R^1 signifies a group readily cleavable by hydrolysis is carried out in each case in the presence or absence of an esterase. As a measurement for the affinity of the respective tested inhibitor to the β-lactamase, which represents a measurement of the strength of the inhibitor, there serves that concentration which inhibits to 50% (IC 50 in μM/l) the cleavage of the substrate (nitrocefin) carried out under the above experimental conditions (experiment B) in the absence of an inhibitor. 4 to 6 experiments with differing concentrations of inhibitor were carried out in order to determine the IC 50. The determination of the IC 50 was carried out graphically.

[2] = biological target: β-lactamase from Proteus vulgaris 1028; assay: β-lactamase inhibition, nitrocefin cleavage, isolated enzyme from P. vulgaris 1028; type: biochemical; details: 15 min pre-incubation, nitrocefin substrate, 37° C., pH 7.0
Description: as §1, §2, §3

[3] = in the absence of an esterase, read-out: β-Lactamase inhibition IC50, P. vulgaris 1028, -E
[4] = in the presence of an esterase, read-out: β-Lactamase inhibition IC50, P. vulgaris 1028, +E

T1 sequence (P62593 24-286 limits assumed): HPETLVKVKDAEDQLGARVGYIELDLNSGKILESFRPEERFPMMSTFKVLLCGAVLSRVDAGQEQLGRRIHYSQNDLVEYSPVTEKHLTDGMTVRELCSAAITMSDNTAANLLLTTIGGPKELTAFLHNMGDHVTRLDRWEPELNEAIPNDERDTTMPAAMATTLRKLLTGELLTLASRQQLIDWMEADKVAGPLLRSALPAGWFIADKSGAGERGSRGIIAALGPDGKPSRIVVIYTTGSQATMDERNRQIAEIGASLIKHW

Compound | pIC50 ([1]; in the absence of an esterase) | pIC50 ([1]; in the presence of an esterase) | pIC50 [2, 3] | pIC50 [2, 4]
CC(=O)C[C@@]1(SC(C)=O)C(=O)N2[C@@H](C(=O)OCOC(=O)C(C)(C)C)C(C)(C)S[C@@H]21 [Example 5, methylene-(2S,5R,6R)-6-acetonyl-6-acetylthio-penicillanate pivalate] | 6.15 | 8.00 | 5.38 | 6.70
CC(C=C1C(=O)N2[C@@H]1SC(C)(C)[C@@H]2C(=O)OCOC(=O)C(C)(C)C)=NO [Example 1, methylene-(2S,5R)-6-[2-(hydroxyimino)propylidene]pencillanate pivalate] | 7.22 | 8.70 | 6.34 | 7.46
CC(=O)C[C@]1(N2CCOCC2)C(=O)N2[C@@H](C(=O)OCOC(=O)C(C)(C)C)C(C)(C)S[C@@H]21 [Example 3, methylene-(2S,5R,6S)-6-acetonyl-6-morpholino-penicillanate pivalate] | 6.05 | 8.00 | 5.39 | 7.00
CC(=O)C[C@]1(Sc2ccccc2)C(=O)N2[C@@H](C(=O)OCOC(=O)C(C)(C)C)C(C)(C)S[C@@H]21 [Example 4, methylene-(2S,5R,6S)-6-acetonyl-6-phenylthio-penicillanate pivalate] | 6.10 | 8.70 | 5.43 | 6.52
